Reference: ChEMBL document CHEMBL5674882, “Benzolactam-related compounds promote apoptosis of HIV-infected human cells via protein kinase C-induced HIV latency reversal” (J Biol Chem, 2019)
Active and inactive are the calls of the source. The rule behind the calls is not given here.

Biological target: Protein kinase C (PKC) (Homo sapiens) (UniProt O94806+P41743+P17252+P05129+Q05655+P05771+Q05513+Q02156+P24723+Q15139+Q04759)
Assay: Activation of PKC in human J-Lat 10.6 cells infected with latent HIV-1 assessed as reversal of HIV-1 latency by measuring increase of GFP-positive cells at 100 to 400 nM in presence of 500 nM GSK525762A incubated for 24 hrs by flow cytometry
Assay type: cell-based
Conditions: filed as activator, dose 100-400 nM

In the case of CCCCCCCCCCc1ccc2c(c1)N(C)[C@@H](C(C)C)C(=O)N[C@H](CO)C2, the Activity is reported as “Active”.
